The format of this series is in vivo. The settings on record: four mice, IP at 0, 2, 4 and 6 hr, 500 μl of 0.1% and 0.01%, observed over 24 hours. As for the experimental part:
Four mice were injected IP at 0, 2, 4 and 6 hr with 500 μl volumes of n-decyl aldehyde at concentrations of 0.1% and 0.01%. Aldehyde solutions were prepared as follows: 100 μl of aldehyde was diluted in 900 μl of ethanol. 10 μl of this 10% solution was then diluted into 990 μl of sterile phosphate buffered saline (PBS) pH 7.4 to give a 0.1% final volume of aldehyde solution. The animals were observed over a 24-hour period.

For the compound `CCCCCCCCCC=O` [n-decyl aldehyde], the “symptoms of illness or abnormal behavior” value is “None of the mice showed any apparent symptoms of illness or abnormal behavior”.

The values above are taken from patent publication US6737245B1, “Luciferase expression cassettes and methods of use” (priority 1999, dated 2004).
